Entries after “also recorded” stand apart in the source; their conditions may differ.
Biological target: T1, DOP receptor (Homo sapiens, UniProt P41143)
Assay: Competitive inhibition of 3H-diprenorphine binding
Settings: 0.3 nM 3H-diprenorphine; means ± S.E.M. (n = 3)
Description: (§1) Two days after transfection with human KOP receptor and GαoB, HEK293T cells were lysed and membranes were prepared in HEPES buffer (NaCl 140 mM, KCl 5.4 mM, HEPES 25 mM, EDTA 1 mM, MgCl2 2 mM, BSA 0.006%, pH 7.4) using a Polytron homogenizer. Membranes were incubated with ^3H-diprenorphine (0.3 nM) (PerkinElmer, Waltham, Mass.) at room temperature for 1 hour in a final volume of 1 ml, in the absence or presence of various concentrations of each small-molecule selected from the virtual screening. Membranes were then harvested using a Brandel cell harvester through a Whatman FPD-24 934AH glass-fiber filter and washed three times with ice-cold wash Buffer (Tris-HCl 10 mM, NaCl 120 mM, pH 7.4). Non-specific binding was determined using 400 nM of NorBNI.
(§2) To assess the degree of selectivity of MCKK-4, MCKK-5, MCKK-13, MCKK-17R or MCKK-17S for the hKOP over the DOP and MOP receptors, competitive inhibition of ^3H-diprenorphine (0.3 nM) binding in the absence or presence of various concentrations of each molecule were performed, and their Ki values for each receptor were determined (Table 2 below).

Compound	Ki [µM]
O=C(Nc1cccc(-n2cccn2)c1)C1CCCN1Cc1c[nH]cn1 (centres unmarked) [MCKK-4]	641 ± 192
CN(CC(=O)NC1CCN(Cc2ccccc2)C1)Cc1ccco1 (centres unmarked) [MCKK-5]	179 ± 187
O=S1(=O)CCC(NCc2cccc(OCCn3ccnc3)c2)C1 (centres unmarked) [MCKK-13]	300 ± 99
O=C(CN1CCC[C@@H]1C(=O)Nc1nccs1)Nc1cccc(F)c1 [MCKK-17R, (R)-1-(2-(3-fluorophenylamino)-2-oxoethyl)-N-(thiazol-2-yl)pyrrolidine-2-carboxamide]	286
O=C(CN1CCC[C@H]1C(=O)Nc1nccs1)Nc1cccc(F)c1 [MCKK-17S, (S)-1-(2-(3-fluorophenylamino)-2-oxoethyl)-N-(thiazol-2-yl)pyrrolidine-2-carboxamide]	> 10000

Biological target: T2, MOP receptor (Homo sapiens, UniProt P35372)
Assay: Competitive inhibition of 3H-diprenorphine binding
Settings: 0.3 nM 3H-diprenorphine; means ± S.E.M. (n = 3)
Description: as §1, §2

Compound	Ki [µM]
O=C(Nc1cccc(-n2cccn2)c1)C1CCCN1Cc1c[nH]cn1 (centres unmarked) [MCKK-4]	906 ± 836
CN(CC(=O)NC1CCN(Cc2ccccc2)C1)Cc1ccco1 (centres unmarked) [MCKK-5]	428 ± 137
O=S1(=O)CCC(NCc2cccc(OCCn3ccnc3)c2)C1 (centres unmarked) [MCKK-13]	> 10000
O=C(CN1CCC[C@@H]1C(=O)Nc1nccs1)Nc1cccc(F)c1 [MCKK-17R, (R)-1-(2-(3-fluorophenylamino)-2-oxoethyl)-N-(thiazol-2-yl)pyrrolidine-2-carboxamide]	508
O=C(CN1CCC[C@H]1C(=O)Nc1nccs1)Nc1cccc(F)c1 [MCKK-17S, (S)-1-(2-(3-fluorophenylamino)-2-oxoethyl)-N-(thiazol-2-yl)pyrrolidine-2-carboxamide]	> 10000

Biological target: T3, KOP receptor (Homo sapiens, UniProt P41145)
Assay: BRET-based arrestin3 recruitment assay
Format: cell-based
Parameters: host or cells: HEK293T
Settings: hKOP-RLuc8 with arrestin3-mVenus; read-out: potency of arrestin3 recruitment at hKOP
Source text: (§3) The cDNAs for human KOP (hKOP) receptor and the G protein GαoB were obtained from the Missouri S&T cDNA Resource Center. For arrestin recruitment experiments, full-length Renilla luciferase 8 (RLuc8, provided by S. Gambhir) was fused in-frame to the C terminus of the hKOP receptor in the pcDNA3.1 vector. The following human G protein constructs were provided by C. Gales (Gales et al., 2006; Sauliere et al., 2012): GαoB with RLuc8 inserted at position 91 (GαoB-RLuc8); untagged Gβ1 (β1); untagged Gγ2 (γ2). The human γ2 subunit was fused to full-length mVenus at its N terminus (mVenus-γ2), and the fusion construct human arrestin3-mVenus was used as previously described (Klewe et al., 2008). All constructs were confirmed by sequencing analysis. A total of 20 μg of plasmid cDNA (e.g. 0.2 μg of hKOR-RLuc8, 15 μg of arrestin3-mVenus, and 4.8 μg of pcDNA3.1) was transfected into HEK-293T cells using polyethylenimine (Polysciences Inc., Warrington, Pa.) in a 1:3 ratio in 10-cm dishes. Cells were maintained in culture with DMEM supplemented with 10% FBS. The transfected ratio among receptor, Gα, β1, and γ2, or arrestin was optimized by testing various ratios of plasmids encoding the different sensors. Experiments were performed 48 hours after transfection.
BRET was performed as described (Guo et al., 2008). Briefly, two days after transfection, cells were harvested, washed, and re-suspended in a phosphate-buffered saline (PBS) solution. Approximately 200,000 cells/well were distributed in 96-well plates, and 5 μM coelenterazine H (luciferase substrate) was added to each well. Five minutes after the addition of coelenterazine H, ligands were added to each well, and after 2 minutes for G protein activation or 5 minutes for arrestin recruitment, the BRET signal was determined by quantifying and calculating the ratio of the light emitted by mVenus, the energy acceptor (510-540 nm), over that emitted by RLuc8, the energy donor (485 nm). The drug-induced BRET signal was normalized, taking the Emax of the ethylketocyclazocine (EKC)-induced response as 100%. […]

Compound	EC50 [µM]
O=C(CN1CCC[C@@H]1C(=O)Nc1nccs1)Nc1cccc(F)c1 [MCKK-17R, (R)-1-(2-(3-fluorophenylamino)-2-oxoethyl)-N-(thiazol-2-yl)pyrrolidine-2-carboxamide]	> 1000
O=C(CN1CCC[C@H]1C(=O)Nc1nccs1)Nc1cccc(F)c1 [MCKK-17S, (S)-1-(2-(3-fluorophenylamino)-2-oxoethyl)-N-(thiazol-2-yl)pyrrolidine-2-carboxamide]	123 ± 47

Biological target: T3, KOP receptor
Assay: G protein bias from BRET-based G protein activation and arrestin recruitment assays
Format: cell-based
Settings: not given

Compound	bias toward G protein activation over arrestin
O=C(CN1CCC[C@H]1C(=O)Nc1nccs1)Nc1cccc(F)c1 [MCKK-17S, (S)-1-(2-(3-fluorophenylamino)-2-oxoethyl)-N-(thiazol-2-yl)pyrrolidine-2-carboxamide]	not biased toward G protein activation over arrestin

Biological target: T3, KOP receptor
Assay: Competitive inhibition of 3H-diprenorphine binding, membranes of transfected HEK293T cells
Parameters: host or cells: HEK293T
Settings: not given
Description: as §1
The primary experimental testing of MCKK-1-22 consisted of performing a competitive inhibition binding assay at the hKOP receptor. Membranes of HEK293T cells transfected with the hKOP receptor and GαoB were prepared and incubated with ^3H-diprenorphine (0.3 nM) in the absence or presence of 10 or 100 μM of each small-molecule from the virtual screening.
as §2

Compound	selectivity for hKOP over DOP and MOP receptors (binding affinity)
O=C(CN1CCC[C@H]1C(=O)Nc1nccs1)Nc1cccc(F)c1 [MCKK-17S, (S)-1-(2-(3-fluorophenylamino)-2-oxoethyl)-N-(thiazol-2-yl)pyrrolidine-2-carboxamide]	exhibited selectivity for the hKOP receptor

Same assay, conditions: 0.3 nM 3H-diprenorphine; means ± S.E.M. (n = 3); read-out: Ki KOP

Compound	Ki [µM]
O=C(Nc1cccc(-n2cccn2)c1)C1CCCN1Cc1c[nH]cn1 (centres unmarked) [MCKK-4]	292 ± 209
CN(CC(=O)NC1CCN(Cc2ccccc2)C1)Cc1ccco1 (centres unmarked) [MCKK-5]	134 ± 81
O=S1(=O)CCC(NCc2cccc(OCCn3ccnc3)c2)C1 (centres unmarked) [MCKK-13]	453 ± 27
O=C(CN1CCC[C@@H]1C(=O)Nc1nccs1)Nc1cccc(F)c1 [MCKK-17R, (R)-1-(2-(3-fluorophenylamino)-2-oxoethyl)-N-(thiazol-2-yl)pyrrolidine-2-carboxamide]	2900
O=C(CN1CCC[C@H]1C(=O)Nc1nccs1)Nc1cccc(F)c1 [MCKK-17S, (S)-1-(2-(3-fluorophenylamino)-2-oxoethyl)-N-(thiazol-2-yl)pyrrolidine-2-carboxamide]	123 ± 38

Same assay, conditions: 100 μM compound, 0.3 nM 3H-diprenorphine, room temperature, 1 hour

Compound	inhibition of 3H-diprenorphine binding
O=C(Nc1cccc(-n2cccn2)c1)C1CCCN1Cc1c[nH]cn1 (centres unmarked) [MCKK-4]	partially but significantly inhibited
CN(CC(=O)NC1CCN(Cc2ccccc2)C1)Cc1ccco1 (centres unmarked) [MCKK-5]	partially but significantly inhibited
O=S1(=O)CCC(NCc2cccc(OCCn3ccnc3)c2)C1 (centres unmarked) [MCKK-13]	partially but significantly inhibited

Biological target: T3, KOP receptor
Assay: BRET-based G protein (GαoB) activation assay in HEK293T cells
Format: cell-based
Parameters: host or cells: HEK293T
Settings: not given
Source text: as §3
(§4) BRET was performed as described (Guo et al., 2008). Briefly, two days after transfection, cells were harvested, washed, and re-suspended in a phosphate-buffered saline (PBS) solution. Approximately 200,000 cells/well were distributed in 96-well plates, and 5 μM coelenterazine H (luciferase substrate) was added to each well. Five minutes after the addition of coelenterazine H, ligands were added to each well, and after 2 minutes for G protein activation or 5 minutes for arrestin recruitment, the BRET signal was determined by quantifying and calculating the ratio of the light emitted by mVenus, the energy acceptor (510-540 nm), over that emitted by RLuc8, the energy donor (485 nm). The drug-induced BRET signal was normalized, taking the Emax of the ethylketocyclazocine (EKC)-induced response as 100%. To measure cAMP accumulation, a BRET-based cAMP in a previously described YFP-Epac-RLuc (CAMYEL) assay was used (Jiang et al., 2007). GαoB B, β1, and γ2 were co-expressed to enhance the signal-to-noise ratio, and the cells were treated for 5 minutes with 100 μM forskolin prior to stimulation (Jiang et al., 2007). The data were normalized and represented as the percentage of forskolin-stimulated cAMP accumulation with 0 defined as the maximal inhibition elicited by EKC.
To assess whether any of these molecules had agonistic activity, a BRET-based G protein activation assay where the hKOP receptor was co-expressed in HEK293T cells with GαoB-RLuc8, β1, and mVenus-γ2 was used. The drug-induced BRET signal is interpreted as a dissociation of and/or conformational change within the Gαβγ complex, and thus, as the activation of the co-expressed G protein.

Compound	selectivity for hKOP relative to MOP and DOP receptors (G protein activation)
O=C(CN1CCC[C@H]1C(=O)Nc1nccs1)Nc1cccc(F)c1 [MCKK-17S, (S)-1-(2-(3-fluorophenylamino)-2-oxoethyl)-N-(thiazol-2-yl)pyrrolidine-2-carboxamide]	selective for hKOP relative to MOP and DOP receptors

Same assay, conditions: hKOP co-expressed with GαoB-RLuc8, β1, mVenus-γ2; read-out: potency (EC50) of GαoB activation at hKOP

Compound	EC50 [µM]
O=C(CN1CCC[C@@H]1C(=O)Nc1nccs1)Nc1cccc(F)c1 [MCKK-17R, (R)-1-(2-(3-fluorophenylamino)-2-oxoethyl)-N-(thiazol-2-yl)pyrrolidine-2-carboxamide]	115 ± 9
O=C(CN1CCC[C@H]1C(=O)Nc1nccs1)Nc1cccc(F)c1 [MCKK-17S, (S)-1-(2-(3-fluorophenylamino)-2-oxoethyl)-N-(thiazol-2-yl)pyrrolidine-2-carboxamide]	7.2 ± 3.8

Same assay, conditions: relative to EKC

Compound	agonistic activity at hKOP (G protein activation), in words
O=C(Nc1cccc(-n2cccn2)c1)C1CCCN1Cc1c[nH]cn1 (centres unmarked) [MCKK-4]	None of the other molecules, MCKK-4, MCKK-5 and MCKK-13, significantly activated GoB
CN(CC(=O)NC1CCN(Cc2ccccc2)C1)Cc1ccco1 (centres unmarked) [MCKK-5]	None of the other molecules, MCKK-4, MCKK-5 and MCKK-13, significantly activated GoB
O=S1(=O)CCC(NCc2cccc(OCCn3ccnc3)c2)C1 (centres unmarked) [MCKK-13]	None of the other molecules, MCKK-4, MCKK-5 and MCKK-13, significantly activated GoB
O=C(CN1CCC[C@H]1C(=O)Nc1nccs1)Nc1cccc(F)c1 [MCKK-17S, (S)-1-(2-(3-fluorophenylamino)-2-oxoethyl)-N-(thiazol-2-yl)pyrrolidine-2-carboxamide]	full agonism relative to EKC; also recorded: more active stereoisomer

Biological target: T1, DOP receptor
Assay: BRET-based G protein activation assay
Format: cell-based
Parameters: expressed in transfected cells
Settings: not given
Description: as §4

Compound	agonistic activity at DOP (G protein activation), in words
O=C(CN1CCC[C@@H]1C(=O)Nc1nccs1)Nc1cccc(F)c1 [MCKK-17R, (R)-1-(2-(3-fluorophenylamino)-2-oxoethyl)-N-(thiazol-2-yl)pyrrolidine-2-carboxamide]	most active enantiomer at the DOP receptor
O=C(CN1CCC[C@H]1C(=O)Nc1nccs1)Nc1cccc(F)c1 [MCKK-17S, (S)-1-(2-(3-fluorophenylamino)-2-oxoethyl)-N-(thiazol-2-yl)pyrrolidine-2-carboxamide]	did not significantly activate the DOP receptor

Same assay, conditions: read-out: potency of G protein activation at DOP

Compound	EC50 [µM]
O=C(CN1CCC[C@@H]1C(=O)Nc1nccs1)Nc1cccc(F)c1 [MCKK-17R, (R)-1-(2-(3-fluorophenylamino)-2-oxoethyl)-N-(thiazol-2-yl)pyrrolidine-2-carboxamide]	> 1000
O=C(CN1CCC[C@H]1C(=O)Nc1nccs1)Nc1cccc(F)c1 [MCKK-17S, (S)-1-(2-(3-fluorophenylamino)-2-oxoethyl)-N-(thiazol-2-yl)pyrrolidine-2-carboxamide]	> 1000

Biological target: T2, MOP receptor
Assay: BRET-based G protein activation assay
Format: cell-based
Parameters: expressed in transfected cells
Settings: not given
Description: as §4

Compound	agonistic activity at MOP (G protein activation), in words
O=C(CN1CCC[C@@H]1C(=O)Nc1nccs1)Nc1cccc(F)c1 [MCKK-17R, (R)-1-(2-(3-fluorophenylamino)-2-oxoethyl)-N-(thiazol-2-yl)pyrrolidine-2-carboxamide]	Neither the racemic nor the MCKK-17 stereoisomers displayed significant activity
O=C(CN1CCC[C@H]1C(=O)Nc1nccs1)Nc1cccc(F)c1 [MCKK-17S, (S)-1-(2-(3-fluorophenylamino)-2-oxoethyl)-N-(thiazol-2-yl)pyrrolidine-2-carboxamide]	Neither the racemic nor the MCKK-17 stereoisomers displayed significant activity

Source: patent US9868730B2, “Kappa opioid receptor selective compounds, compositions, and uses thereof” (The Trustees of Columbia University in the City of New York, priority 2013, dated 2018)
